# From patent US20240082212A1, “USE OF MDMA FOR TREATMENT OF STRESS-RELATED DISORDERS” (priority 2022, published 2024)
# Key:
# Serotonin 5-HT2B = Serotonin 5-HT2B (Homo sapiens, UniProt P41595); assay: Eurofins Panlabs radioligand binding panel, serotonin 5-HT2B; conditions: 10 uM
# Adrenergic α2A = target: T1, Adrenergic α2A (Homo sapiens, UniProt P08913); assay: Eurofins Panlabs radioligand binding panel, adrenergic α2A; conditions: read-out: % inhibition of binding or activity
# T1 sequence (P08913 1-465): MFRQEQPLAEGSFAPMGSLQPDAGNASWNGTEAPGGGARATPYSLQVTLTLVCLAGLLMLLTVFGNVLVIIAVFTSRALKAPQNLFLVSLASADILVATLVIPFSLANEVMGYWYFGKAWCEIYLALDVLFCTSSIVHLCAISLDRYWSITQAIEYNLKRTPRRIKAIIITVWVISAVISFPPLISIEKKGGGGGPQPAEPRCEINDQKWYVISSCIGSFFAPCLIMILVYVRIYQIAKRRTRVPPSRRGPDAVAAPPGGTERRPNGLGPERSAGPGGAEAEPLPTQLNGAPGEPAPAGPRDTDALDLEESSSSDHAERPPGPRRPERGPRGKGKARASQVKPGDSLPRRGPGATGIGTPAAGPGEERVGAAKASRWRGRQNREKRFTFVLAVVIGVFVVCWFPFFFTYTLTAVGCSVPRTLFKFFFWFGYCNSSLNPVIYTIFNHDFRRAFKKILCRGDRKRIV
# Procedure: Each of the compounds was evaluated for binding to 87 different targets as part of a panel (Eurofins Panlabs, Taiwan, China). Each compound was tested at a single concentration of […]. The panel included mostly G-protein-couple receptors, ion channels, enzymes, transporters and nuclear receptors, expressed in the central nervous system, cardiovascular, respiratory, gastrointestinal and renal systems. A limited number of targets were of pig, rat or guinea pig origin. Targets were expressed in human recombinant cells lines, rat brain or spinal cord, guinea pig brain or pig heart. Methods were adapted from the scientific literature to maximize reliability and reproducibility. Reference standards were run as an integral part of each assay to ensure validity of the results obtained (available online at the eurofins website for the safety screen 87 panel).
# cortical neurons = assay: Neurite outgrowth in embryonic rat cortical neuron cultures; format: cell-based; conditions: any tested concentration (0.001 to 10000 nM), 3 days, vs vehicle
# Source text: Female Wistar rats of 17 days gestation were killed by cervical dislocation and the fetuses (typically 6 to 8 in number) were removed from the uteri. Fetal brains were placed in ice-cold medium of Leibovitz (L15, Gibco, France). Cortex was dissected and meninges were carefully removed. The cortical neurons were dissociated by trypsinization (trypsin-EDTA, Gibco) in the presence of DNAse I (Roche, France). The reaction was stopped by addition of Dulbecco's Modified Eagle Medium (DMEM; Gibco) with 10% of fetal bovine serum (FBS; Gibco). The suspension was triturated with a 10-ml pipette and a 21-gauge needle syringe and centrifuged. The pellet of dissociated cells was resuspended in a medium consisting of Neurobasal (Gibco) supplemented with 2% B27 supplement (Gibco), 0.5 mM L-Glutamine (Gibco), and an antibiotic-antimycotic mixture. Viable cells were counted in a Neubauer cytometer and cells were seeded in 96-well plates (Costar) precoated with poly-L-lysine at 10,000 cells/well. […] Stock solutions were prepared in sterile water at 10 mM and stored at −20° C. until used. Further dilutions were prepared in culture in the medium on the day of the treatment. 0.1% Sterile water was present in all tested conditions.
# The experimental protocol was performed in two independent cultures (i.e., from two different pregnant rats). For each culture, each condition was tested in sextuplet (6 wells per condition per culture for a total of 12 wells per condition). […] After three days of plating and compound treatment (Day 3), cultures were fixed with paraformaldehyde in phosphate buffered saline at 4° C. (PBS, 4%, Sigma). All subsequent steps were performed at room temperature. Cells were successively permeabilized for 30 minutes using 0.1% triton, saturated with PBS containing 3% bovine serum albumin (BSA) and incubated for 1 hour with anti-beta III tubulin antibody (T5168, Sigma). […] Finally, nuclei were stained with 4′-6-diamidino-2-phenylindole (DAPI). After rinsing the cells with PBS, the plate was imaged and neurite networks were examined and analyzed using a High-Content Screening platform (CellInsight CXS, Thermo Scientific) with integrated Photometrics high-resolution fluorescent camera, Olympus objective (10×) and HCS Studio Cell Analysis Software. Approximately 2,000 neurons per well were analyzed using a validated cortex neuron outgrowth algorithm that utilizes parameters optimized for analysis of embryonic rat cortical neuron cultures. The HCS Studio Cell Analysis Software output included values for neurite total count (#), neurite total length (μm) and total number of branch points (#) for each of the 6 wells per culture. The evaluation of neurite outgrowth was performed using the average number of neurites per neuron (#), the average of total neurite length per neuron (μm) and the average number of branch points per neuron (#) across 12 wells. Data also was transformed to percent (%) of the average vehicle control value. Results were expressed as mean (±s.e.m.) of the transformed (% of vehicle control) data. Statistical analyses were performed on transformed percent of the average vehicle control data for each measure for each test article using one-way analysis of variance (Anova, StatView). Where applicable, Dunnett's test was used for multiple pairwise comparisons to the negative control (vehicle) condition. […] The level of significance was set at p value less than or equal to 0.05 (*p<0.05).
# C57BL/6J mice = assay: Head twitch response (HTR); format: in vivo, mouse; conditions: 30 minutes after injection
# Procedure: Male C57BL/6J mice at 6-8 weeks of age were purchased from Jackson Laboratories and housed four per cage in a climate and humidity-controlled room in a vivarium at the University of California, San Diego. The room operated on a reverse light cycle (lights on at 1900 h, off at 0700 h) with food and water available ad libitum, except during testing. All testing was performed during 1000 h and 1800 h. After a minimum of 1 week acclimation to the housing facility, mice were anesthetized using a mixture of ketamine (100 mg/kg IP) and xylazine (10 mg/kg IP). Under deep anesthesia, an incision was made in the scalp and a small neodymium magnet (4.57 mm×4.57 mm×2.03 mm) was attached to the cranium using cyanoacrylate and dental cement. After at least a 2-week recovery period, the mouse was removed from the home cage and injected intraperitoneally with the test article or vehicle (0.9% sterile saline). Immediately, the mouse was placed in a glass cylinder surrounded by a magnetometer coil and the head twitch response (HTR) was assessed for 30 minutes (Halberstadt and Geyer, 2013). The output of the coil was recorded using a Powerlab/8SP with LabChart v.7.3.2 (ADInstruments). Coil voltage was amplified, low-pass filtered (2-10 kHz cut-off frequency) to remove interference, digitized and sampled at 20 kHz. Head twitches were identified using a validated technique based on artificial intelligence (Halberstadt, 2020). Events in the recordings were transformed into a visual representation in the time-frequency domain and deep features were extracted using the pretrained convolutional neural network ResNet-50, and the images were subsequently classified using a Support Vector Machine algorithm.
# Test articles (R,S-MDA, R(−)-MDA, S-(+)MDA), R,S-MDMA, R(−)-MDMA and S(+)-MDMA) were supplied by the NIDA Drug Supply Program as neat powders. Racemic MDA and MDMA and their enantiomers were dissolved in saline and injected IP at a volume of 5 mL/kg. Each dose was calculated based on the salt form of the compounds. For each treatment condition, six groups of mice (n=5-6/group) were treated with vehicle or the test drug (0.1, 0.3, 1, 3, or 10 mg/kg) and HTR assessed for 30 minutes immediately following injections. To avoid carryover effects, each treatment condition was performed at least seven days apart. Total number of mice used for the experiment was 63.
# Serotonin 5-HT1A = target: T2, Serotonin 5-HT1A (Homo sapiens, UniProt P08908); assay: Eurofins Panlabs radioligand binding panel, serotonin 5-HT1A; conditions: 10 uM
# T2 sequence (P08908 1-422): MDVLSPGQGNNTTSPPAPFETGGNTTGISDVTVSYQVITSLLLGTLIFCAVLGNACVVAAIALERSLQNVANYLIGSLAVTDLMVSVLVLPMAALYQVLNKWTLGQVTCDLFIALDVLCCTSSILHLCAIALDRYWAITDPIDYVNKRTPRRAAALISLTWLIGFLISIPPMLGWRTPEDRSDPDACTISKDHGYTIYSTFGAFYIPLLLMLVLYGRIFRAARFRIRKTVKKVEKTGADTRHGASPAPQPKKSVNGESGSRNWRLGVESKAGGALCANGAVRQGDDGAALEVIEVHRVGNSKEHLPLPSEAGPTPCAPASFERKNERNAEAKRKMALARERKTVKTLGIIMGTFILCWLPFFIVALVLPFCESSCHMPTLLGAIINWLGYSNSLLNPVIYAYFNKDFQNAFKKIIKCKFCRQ
# [1] = Rat plasma pharmacokinetics after cumulative (QID) SC injections; conditions: for Cmax: metabolite after QID SC parent (R-MDA after R-MDMA, S-MDA after S-MDMA, total MDA after Rac-MDMA)
# [2] = male rat plasma, metabolite after QID SC parent, total 10 mg/kg/day
# [3] = male rat plasma, metabolite after QID SC parent, total 20 mg/kg/day
# Sequence of Serotonin 5-HT2B (P41595 whole entry): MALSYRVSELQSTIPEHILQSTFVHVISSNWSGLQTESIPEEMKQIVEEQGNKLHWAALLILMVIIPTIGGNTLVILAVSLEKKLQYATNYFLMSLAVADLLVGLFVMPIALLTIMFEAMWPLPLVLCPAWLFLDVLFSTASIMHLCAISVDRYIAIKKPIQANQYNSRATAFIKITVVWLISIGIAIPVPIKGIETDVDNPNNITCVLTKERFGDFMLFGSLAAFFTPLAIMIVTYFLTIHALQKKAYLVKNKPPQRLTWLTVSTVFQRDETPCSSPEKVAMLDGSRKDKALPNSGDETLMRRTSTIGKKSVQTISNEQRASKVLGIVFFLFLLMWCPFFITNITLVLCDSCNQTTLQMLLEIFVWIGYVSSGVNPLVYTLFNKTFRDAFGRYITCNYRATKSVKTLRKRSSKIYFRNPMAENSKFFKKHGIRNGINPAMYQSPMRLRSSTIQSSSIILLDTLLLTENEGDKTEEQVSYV
smiles,measurement,setting,value
"CC(N)Cc1ccc2c(c1)OCO2 (racemic) [Racemic MDA, 3,4-methylenedioxyamphetamine]",inhibition at 10 µM,Serotonin 5-HT2B; read-out: % inhibition of binding or activity,89%
same,inhibition at 10 µM,Adrenergic α2A,53%
same,neurite number (#),cortical neurons,did not significantly alter
same,neurite total length (μm),cortical neurons,did not significantly alter
same,total number of branch points (#),cortical neurons,did not significantly alter
same,head twitch response (HTR) compared to control (vehicle),C57BL/6J mice; 3 mg/kg IP,increased HTR
"C[C@@H](N)Cc1ccc2c(c1)OCO2 [R-MDA, R(−)-MDA]",% inhibition of binding or activity,Serotonin 5-HT2B,88%
same,% inhibition of binding or activity,Serotonin 5-HT1A,50%
same,neurite number (#),cortical neurons,did not significantly alter
same,neurite total length (μm),cortical neurons,did not significantly alter
same,total number of branch points (#),cortical neurons,did not significantly alter
same,head twitch response (HTR) compared to control (vehicle),C57BL/6J mice; 1 mg/kg IP,elicited an increase in HTR
same,head twitch response (HTR) compared to control (vehicle),C57BL/6J mice; 3 mg/kg IP,elicited an increase in HTR
same,head twitch response (HTR) compared to control (vehicle),C57BL/6J mice; 10 mg/kg IP,elicited an increase in HTR
same,dose dependence of Cmax and AUC0-27 hr,"[1]; dose increase from 10 to 20 mg/kg/day of the dosed test article, QID SC",approximately dose proportional manner
same,Cmax,"[1]; male rat plasma, total 10 mg/kg/day",127 ng/mL
same,Cmax,"[1]; male rat plasma, total 20 mg/kg/day",272 ng/mL
same,AUC0-27 hr,[1]; [2],813 ng·h/mL
same,AUC0-27 hr/Dose,[1]; [2],81.3 *kg*ng/mL/mg
same,AUCTlast,[1]; [2],716 ng·h/mL
same,Cmax/Dose,[1]; [2],12.7 kg·ng/mL/mg
same,Tlast,[1]; [2],11 h
same,Tmax,[1]; [2],5 h
same,AUC0-27 hr,[1]; [3],2410 ng·h/mL
same,AUC0-27 hr/Dose,[1]; [3],121 *kg*ng/mL/mg
same,AUCTlast,[1]; [3],1810 ng·h/mL
same,Cmax/Dose,[1]; [3],13.6 kg·ng/mL/mg
same,T1/2,[1]; [3],2.67 h
same,Tlast,[1]; [3],11 h
same,Tmax,[1]; [3],5 h
